Source: patent US7294637B2 (Sepracor, Inc., priority 2000, dated 2007)
Like-named read-outs stand apart in the source and are kept apart here.

Experiments:
DAT = DAT (Homo sapiens, UniProt Q01959); experiment: cell-based; set-up: expressed in transfected cells; details: hDAT cell line; read-out: DA Uptake, Functional Assays (antagonism, EC50)
dopamine transporter = dopamine transporter (Homo sapiens, UniProt Q01959); experiment: DA uptake: displacement of dopamine ligands in vitro (methods of Gu et al.); details: DA Uptake, Uptake Profile (IC50, nM), displacement of dopamine ligands in vitro
Sequence of dopamine transporter (Q01959 whole entry): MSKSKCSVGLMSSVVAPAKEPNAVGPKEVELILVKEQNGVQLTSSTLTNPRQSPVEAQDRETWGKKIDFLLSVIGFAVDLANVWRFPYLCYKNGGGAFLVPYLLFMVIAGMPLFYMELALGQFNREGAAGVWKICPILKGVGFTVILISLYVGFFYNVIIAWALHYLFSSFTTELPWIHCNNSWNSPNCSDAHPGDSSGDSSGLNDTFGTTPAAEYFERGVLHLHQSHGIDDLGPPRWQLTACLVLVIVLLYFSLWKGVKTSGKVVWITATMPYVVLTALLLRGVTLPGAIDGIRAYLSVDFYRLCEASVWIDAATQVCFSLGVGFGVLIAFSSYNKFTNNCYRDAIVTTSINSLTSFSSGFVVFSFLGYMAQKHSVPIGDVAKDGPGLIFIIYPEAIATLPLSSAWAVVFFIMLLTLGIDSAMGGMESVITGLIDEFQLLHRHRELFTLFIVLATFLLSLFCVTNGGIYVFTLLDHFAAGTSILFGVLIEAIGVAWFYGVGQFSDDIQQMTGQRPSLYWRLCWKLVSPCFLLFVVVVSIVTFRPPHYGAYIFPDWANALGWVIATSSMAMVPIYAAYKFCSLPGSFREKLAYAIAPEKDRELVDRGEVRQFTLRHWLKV

serotonin transporter = serotonin transporter (Homo sapiens, UniProt P31645); experiment: 5-HT uptake: displacement of serotonin ligands in vitro (methods of Gu et al.); format: binding
Sequence of serotonin transporter (P31645 whole entry): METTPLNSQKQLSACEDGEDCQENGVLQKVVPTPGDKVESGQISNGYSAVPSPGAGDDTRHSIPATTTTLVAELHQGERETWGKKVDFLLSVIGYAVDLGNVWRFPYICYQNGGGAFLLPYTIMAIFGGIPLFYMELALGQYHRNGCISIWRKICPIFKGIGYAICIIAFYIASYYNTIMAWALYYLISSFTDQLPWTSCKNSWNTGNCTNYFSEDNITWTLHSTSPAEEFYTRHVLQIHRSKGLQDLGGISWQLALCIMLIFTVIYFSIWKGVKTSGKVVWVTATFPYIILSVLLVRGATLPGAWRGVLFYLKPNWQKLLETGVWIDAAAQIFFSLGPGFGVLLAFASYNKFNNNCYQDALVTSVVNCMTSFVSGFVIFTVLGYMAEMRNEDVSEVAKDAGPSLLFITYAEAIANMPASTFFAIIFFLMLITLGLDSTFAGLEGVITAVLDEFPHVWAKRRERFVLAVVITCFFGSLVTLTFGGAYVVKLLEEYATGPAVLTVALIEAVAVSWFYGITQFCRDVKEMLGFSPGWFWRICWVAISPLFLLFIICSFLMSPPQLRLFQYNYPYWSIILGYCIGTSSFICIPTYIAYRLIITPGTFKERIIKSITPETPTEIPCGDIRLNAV

[1] = molecular target: norepinephrine transporter (Homo sapiens, UniProt P23975); experiment: NE uptake: displacement of norephinephrine ligands in vitro (methods of Galli et al.); format: binding
Sequence of norepinephrine transporter (P23975 whole entry): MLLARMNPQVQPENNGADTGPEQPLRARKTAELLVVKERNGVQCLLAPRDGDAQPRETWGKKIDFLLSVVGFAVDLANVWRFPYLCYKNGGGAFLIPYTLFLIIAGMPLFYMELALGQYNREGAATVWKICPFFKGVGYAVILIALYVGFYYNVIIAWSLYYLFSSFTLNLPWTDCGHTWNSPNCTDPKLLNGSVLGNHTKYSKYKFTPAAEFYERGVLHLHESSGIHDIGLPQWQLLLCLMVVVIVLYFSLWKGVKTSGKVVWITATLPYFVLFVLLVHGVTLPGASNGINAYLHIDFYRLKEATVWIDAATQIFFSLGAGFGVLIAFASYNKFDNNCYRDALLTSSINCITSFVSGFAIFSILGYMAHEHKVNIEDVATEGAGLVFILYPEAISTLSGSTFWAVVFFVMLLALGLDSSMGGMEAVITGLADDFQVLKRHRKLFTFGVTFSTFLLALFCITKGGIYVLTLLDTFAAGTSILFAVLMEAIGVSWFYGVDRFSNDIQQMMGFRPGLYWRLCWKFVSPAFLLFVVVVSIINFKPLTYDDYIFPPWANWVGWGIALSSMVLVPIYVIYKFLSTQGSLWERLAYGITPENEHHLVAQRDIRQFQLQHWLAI

[2] = 5-HT Uptake, Uptake Profile (IC50, nM)
[3] = NE Uptake, Uptake Profile (IC50, nM)
[4] = displacement of serotonin ligands in vitro, read-out: 5-HT Uptake, Uptake Profile (IC50)
[5] = read-out: NE Uptake, Uptake Profile (IC50)

Sequence of DAT (Q01959 whole entry): as the sequence (Q01959 whole entry) above

OCC1CCCN(CC2(c3ccc(Cl)cc3)CCC2)C1 (centres unmarked) [compound 2]
EC50 (DAT): < 0.1 µM | IC50 (dopamine transporter): < 1000 nM | IC50 (serotonin transporter; [2]): > 1000 nM | IC50 [1, 3]: > 1000 nM

FC(F)(F)c1ccc(OCC2CCCN(CC3(c4ccc(Cl)cc4)CCC3)C2)cc1 (centres unmarked) [compound 7]
EC50 (DAT): < 0.1 µM | IC50 (dopamine transporter): < 100 nM | IC50 (serotonin transporter; [2]): > 1000 nM | IC50 [1, 3]: > 1000 nM

OC(CN1CCCC(COc2ccc(OC(F)(F)F)cc2)C1)C1(c2ccc(Cl)cc2)CCC1 (centres unmarked) [compound 210, 1-[1-(4-Chloro-phenyl)-cyclobutyl]-2-[3-(4-trifluoromethoxy-phenoxymethyl)-piperidin-1-yl]-ethanol]
IC50 (dopamine transporter): < 10 nM | IC50 (serotonin transporter; [4]): < 1000 nM | IC50 [1, 3]: < 100 nM

CC(CN1CCCC(COc2ccc(C(F)(F)F)cc2)C1)C(O)c1ccc(Cl)cc1 (centres unmarked) [compound 218, 1-(4-Chloro-phenyl)-2-methyl-3-[3-(4-trifluoromethyl-phenoxymethyl)-piperidin-1-yl]-propan-1-ol]
IC50 (dopamine transporter): < 10 nM | IC50 (serotonin transporter; [4]): < 1000 nM | IC50 [1, 3]: > 1000 nM

OC(CN1CCCC(CCc2ccccc2)C1)c1ccc(Cl)cc1 (single isomer, unassigned) [compound 142, 1-(4-Chloro-phenyl)-2-(3-phenethyl-piperidin-1-yl)-ethanol]
IC50 (dopamine transporter): < 1000 nM | IC50 (serotonin transporter; [4]): < 100 nM | IC50 [1, 3]: < 1000 nM

FC(F)(F)c1ccc(OCC2CCCN(CCc3ccc(-c4ccccc4)cc3)C2)cc1 (centres unmarked) [compound 181, 1-(2-Biphenyl-4-yl-ethyl)-3-(4-trifluoromethyl-phenoxymethyl)-piperidine]
IC50 (dopamine transporter): > 1000 nM | IC50 (serotonin transporter; [2]): < 100 nM | IC50 [1, 3]: < 1000 nM

FC(F)(F)c1ccc(COC2CCCN(CC3(c4ccc(Cl)cc4)CCC3)C2)cc1 (centres unmarked) [compound 107, 1-[1-(4-Chloro-phenyl)-cyclobutylmethyl]-3-(4-trifluoromethyl-benzyloxy)-piperidine]
IC50 (dopamine transporter): < 1000 nM | IC50 (serotonin transporter; [4]): > 1000 nM | IC50 [1, 3]: < 1000 nM

OC(CN1CCCC(CCc2ccc(C(F)(F)F)cc2)C1)c1ccc(Cl)cc1 (single isomer, unassigned) [compound 152, 1-(4-Chloro-phenyl)-2-{3-[2-(4-trifluoromethyl-phenyl)-ethyl]-piperidin-1-yl}-ethanol]
IC50 (dopamine transporter): < 1000 nM | IC50 (serotonin transporter; [4]): < 100 nM | IC50 [1, 3]: < 1000 nM

OC(CN1CCCC(CCc2ccc(OC(F)(F)F)cc2)C1)c1ccc(Cl)cc1 (centres unmarked) [compound 201]
IC50 (dopamine transporter): < 10 nM | IC50 (serotonin transporter; [4]): < 1000 nM | IC50 [1, 3]: < 1000 nM

COc1ccc(C2(CN3CCC[C@H](COc4ccc(OC(F)(F)F)cc4)C3)CCC2)cc1 [compound 171, (S)-1-[1-(4-Methoxy-phenyl)-cyclobutylmethyl]-3-(4-trifluoromethoxy-phenoxymethyl)-piperidine]
IC50 (dopamine transporter): < 10 nM | IC50 (serotonin transporter; [4]): < 1000 nM | IC50 [1, 3]: < 1000 nM

OC(CN1CCCC(COc2ccc(C(F)(F)F)cc2)C1)C1(c2ccc(Cl)cc2)CCC1 (centres unmarked) [compound 24, 1-[1-(4-Chlorophenyl)cyclobutyl]-2-[3-(4-trifluoromethylphenoxymethyl)piperidin-1-yl]ethanol]
IC50 (dopamine transporter): < 10 nM | IC50 (serotonin transporter; [4]): < 1000 nM | IC50 [1, 3]: < 10 nM

OC1CCCN(CC2(c3ccc(Cl)cc3)CCC2)C1 (centres unmarked) [compound 89, 1-[1-(4-Chlorophenyl)cyclobutylmethyl]piperidin-3-ol]
IC50 (dopamine transporter): < 1000 nM | IC50 (serotonin transporter; [4]): > 1000 nM | IC50 [1, 3]: < 1000 nM

COc1ccccc1C1(C(O)CN2CCCC(COc3ccc(C(F)(F)F)cc3)C2)CCC1 (centres unmarked) [compound 164]
IC50 (dopamine transporter): < 10 nM | IC50 (serotonin transporter; [4]): < 100 nM | IC50 [1, 3]: < 1000 nM

CO[C@@H](CN1CCC[C@@H](COc2ccc(C(F)(F)F)cc2)C1)C1(c2ccc(Cl)cc2)CCC1 [compound 160]
IC50 (dopamine transporter): < 100 nM | IC50 (serotonin transporter; [4]): < 1000 nM | IC50 [1, 3]: > 1000 nM

Clc1ccc(C2(CN3CCCC(CCc4ccccc4)C3)CCC2)cc1 (centres unmarked) [compound 147, 1-[1-(4-Chloro-phenyl)-cyclobutylmethyl]-3-phenethyl-piperidine]
IC50 (dopamine transporter): < 1000 nM | IC50 (serotonin transporter; [4]): > 1000 nM | IC50 [1, 3]: < 100 nM

CO[C@H](CN1CCC[C@@H](COc2ccc(C(F)(F)F)cc2)C1)C1(c2ccc(Cl)cc2)CCC1 [compound 161]
IC50 (dopamine transporter): < 10 nM | IC50 (serotonin transporter; [4]): < 1000 nM | IC50 [1, 3]: < 1000 nM

OC(CN1CCCC(COc2ccc(C(F)(F)F)cc2)C1)c1c[nH]c2ccc(Cl)cc12 (centres unmarked) [compound 222, 1-(5-Chloro-1H-indol-3-yl)-2-[3-(4-trifluoromethyl-phenoxymethyl)-piperidin-1-yl]-ethanol]
IC50 (dopamine transporter): > 1000 nM | IC50 (serotonin transporter; [4]): < 1000 nM | IC50 [1, 3]: > 1000 nM

OC(C[C@H]1CCCN(CC2(c3ccc(Cl)cc3)CCC2)C1)c1ccccc1 (stereo in doubt) [compound 182, (S)-[2-{1-[1-(4-Chloro-phenyl)-cyclobutylmethyl]-piperidin-3-yl}-1-phenyl-ethanol]]
IC50 (dopamine transporter): < 100 nM | IC50 (serotonin transporter; [4]): < 1000 nM | IC50 [1, 5]: > 1000 nM

FC(F)(F)c1ccc(OC[C@@H]2CCCN(CC3(c4ccc(Cl)cc4)CCC3)C2)cc1 [compound 76]
IC50 (dopamine transporter): < 1000 nM | IC50 (serotonin transporter; [2]): > 1000 nM | IC50 [1, 3]: < 1000 nM

CC(O)(CN1CCC[C@@H](CCc2ccccc2)C1)c1ccc(Cl)cc1 (stereo partly drawn) [compound 197, 2-(4-Chloro-phenyl)-1-(3 (R)-phenethyl-piperidin-1-yl)-propan-2-ol]
IC50 (dopamine transporter): < 1000 nM | IC50 (serotonin transporter; [4]): < 10 nM | IC50 [1, 3]: < 1000 nM

COc1ccc2[nH]cc(CCN3CCCC(COc4ccc(C(F)(F)F)cc4)C3)c2c1 (centres unmarked) [compound 220, 5-Methoxy-3-{2-[3-(4-trifluoromethyl-phenoxymethyl)-piperidin-1-yl]-ethyl}-1H-indole]
IC50 (dopamine transporter): < 1000 nM | IC50 (serotonin transporter; [4]): < 100 nM | IC50 [1, 3]: < 1000 nM

CO[C@H](CN1CCC[C@H](COc2ccc(C(F)(F)F)cc2)C1)C1(c2ccc(Cl)cc2)CCC1 [compound 163]
IC50 (dopamine transporter): < 10 nM | IC50 (serotonin transporter; [4]): < 1000 nM | IC50 [1, 3]: > 1000 nM

CO[C@@H](CN1CCC[C@H](COc2ccc(C(F)(F)F)cc2)C1)C1(c2ccc(Cl)cc2)CCC1 [compound 162]
IC50 (dopamine transporter): < 100 nM | IC50 (serotonin transporter; [4]): < 1000 nM | IC50 [1, 3]: > 1000 nM

COc1ccc(C2(CN3CCC[C@@H](COc4ccc(OC(F)(F)F)cc4)C3)CCC2)cc1 [compound 170, (R)-1-[1-(4-Methoxy-phenyl)-cyclobutylmethyl]-3-(4-trifluoromethoxy-phenoxymethyl)-piperidine]
IC50 (dopamine transporter): < 10 nM | IC50 (serotonin transporter; [4]): < 1000 nM | IC50 [1, 3]: < 1000 nM

OC(CN1CCCC(CCc2ccc(C(F)(F)F)cc2)C1)C1(c2ccc(Cl)cc2)CCC1 (single isomer, unassigned) [compound 192, 1-[1-(4-Chloro-phenyl)-cyclobutyl]-2-{3-[2-(4-trifluoromethyl-phenyl)-ethyl]-piperidin-1-yl}-ethanol]
IC50 (dopamine transporter): < 10 nM | IC50 (serotonin transporter; [4]): < 1000 nM | IC50 [1, 3]: < 1000 nM

CC(C)(CN1CCCC(CO)C1)c1ccc(Cl)cc1 (centres unmarked) [compound 80]
IC50 (dopamine transporter): > 1000 nM | IC50 (serotonin transporter; [4]): > 1000 nM | IC50 [1, 5]: > 1000 nM

COC(CC1CCCN(CC2(c3ccc(Cl)cc3)CCC2)C1)c1ccccc1 (stereo in doubt) [compound 184, (S)-[1-[1-(4-Chloro-phenyl)-cyclobutylmethyl]-3-(2-methoxy-2-phenyl-ethyl)-piperidine]]
IC50 (dopamine transporter): < 1000 nM | IC50 (serotonin transporter; [4]): < 1000 nM | IC50 [1, 3]: < 1000 nM

OC(CN1CCCC(CCc2ccc(C(F)(F)F)cc2)C1)C1(c2ccc(Cl)cc2)CCC1 (single isomer, unassigned) [compound 193, 1-[1-(4-Chloro-phenyl)-cyclobutyl]-2-{3-[2-(4-trifluoromethyl-phenyl)-ethyl]-piperidin-1-yl}-ethanol]
IC50 (dopamine transporter): < 10 nM | IC50 (serotonin transporter; [4]): < 1000 nM | IC50 [1, 3]: < 10 nM
